Data taken from patent publication US20250144067A1, “PERSONALIZED STARVATION THERAPY FOR CANCER” (Faeth Therapeutics, Inc., priority 2021, published 2025).
Structures can show the parent of a compound that is named as a salt. Where two headings read alike, the source gives them in different places.

Legend:
[1] = test system: NCI-H292 lung cancer cells; assay: FDA drug screening, complete media vs cholesterol-free media with simvastatin (TABLE 2); type: cell-based, human
[2] = test system: NCI-H292 lung cancer cells; assay: FDA drug screening, complete media vs cholesterol-free media without statin (TABLE 1); type: cell-based, human
[3] = NCI-H292 cells, FDA library drug in cholesterol-free media with simvastatin 0.04 μM
[4] = NCI-H292 cells, FDA library drug in complete media
[5] = complete media vs cholesterol-free media + simvastatin (0.04 μM), >0 enhanced anti-cancer activity, about 0 neutral, <0 antagonist
[6] = NCI-H292 cells, cholesterol-free media without statin, FDA drug library screen
[7] = NCI-H292 cells, complete media, FDA drug library screen
[8] = complete vs cholesterol-free media, >0 enhanced anti-cancer activity, about 0 neutral, <0 antagonist
[9] = NCI-H292 cells, drug in cholesterol-free media with simvastatin 0.04 μM
[10] = NCI-H292 cells, drug in complete media
[11] = NCI-H292 cells, FDA drug library screen, cholesterol-free media with simvastatin 0.04 μM
[12] = NCI-H292 cells, FDA drug library screen, complete media
[13] = Complete minus Cholesterol-free, greater than 0 enhanced anti-cancer activity, about 0 neutral, below 0 antagonist
[14] = NCI-H292 cells, FDA drug library screen, cholesterol-free media without statin
[15] = Complete minus Cholesterol-free, greater than 0 enhanced anti-cancer activity, about 0 neutral, below 0 antagonists
[16] = NCI-H292 cells in cholesterol-free media without statin
[17] = NCI-H292 cells in complete media
[18] = Complete minus Cholesterol-free, >0 enhanced anti-cancer activity, about 0 neutral, <0 antagonist
[19] = NCI-H292 cells, cholesterol-free media with simvastatin 0.04 μM, cell growth value in FDA drug screen
[20] = NCI-H292 cells, complete media, cell growth value in FDA drug screen
[21] = complete media minus cholesterol-free media + simvastatin, >0 enhanced anti-cancer activity, about 0 neutral, <0 antagonist
[22] = NCI-H292 cells, cholesterol-free media without statin
[23] = Complete minus Cholesterol-free, […]
[24] = NCI-H292 cells, cholesterol-free media with simvastatin 0.04 μM, FDA drug library screen (TABLE 2)
[25] = NCI-H292 cells, complete media, FDA drug library screen (TABLE 2)
[26] = complete media minus cholesterol-free media + simvastatin (0.04 μM), >0 enhanced anti-cancer activity, about 0 neutral, <0 antagonist

CCCc1nc(C(C)(C)O)c(C(=O)OCc2oc(=O)oc2C)n1Cc1ccc(-c2ccccc2-c2nnn[nH]2)cc1 [Olmesartan medoxomil]
Cholesterol-free media + simvastatin (0.04 μM) [1, 3]: 2.007
Complete Media [1, 4]: 1.701
Difference [1, 5]: −0.31
Cholesterol-free [2, 6]: 0.613
Complete [2, 7]: 1.033
Difference [2, 8]: 0.42

N[C@@H](Cc1c[nH]c2ccccc12)C(=O)O [L-Tryptophan]
Cholesterol-free media + simvastatin (0.04 μM) [1, 9]: 1.157
Complete Media [1, 10]: 0.9202
Difference [1, 5]: −0.24
Cholesterol-free [2, 6]: 1.009
Complete [2, 7]: 1.103
Difference [2, 8]: 0.09

Cc1c(C)c2c(c(C)c1O)CCC(C)(CCCC(C)CCCC(C)CCCC(C)C)O2 (racemic) [DL-alpha-Tocopherol]
Cholesterol-free media + simvastatin (0.04 μM) [1, 11]: 1.155
Complete Media [1, 12]: 1.072
Difference [1, 5]: −0.08
Cholesterol-free [2, 6]: 0.7949
Complete [2, 7]: 1.459
Difference [2, 8]: 0.66

CCCCCCCCCCCCCCCC(=O)OC1CCCn2c1nc(C)c(CCN1CCC(c3noc4cc(F)ccc34)CC1)c2=O (stereo not drawn) [Paliperidone palmitate]
Cholesterol-free media + simvastatin (0.04 μM) [1, 3]: 1.193
Complete Media [1, 4]: 0.8268
Difference [1, 5]: −0.37
Difference [2, 13]: −0.16
Cholesterol-free [2, 14]: 1.234
Complete [2, 12]: 1.075

COCCCOc1ccnc(C[S+]([O-])c2nc3ccccc3[n-]2)c1C.[Na+] (stereo not drawn) [Rabeprazole (sodium)]
Cholesterol-free media + simvastatin (0.04 μM) [1, 3]: 1.461
Complete Media [1, 4]: 0.9065
Difference [1, 5]: −0.55
Difference [2, 15]: −0.70
Cholesterol-free [2, 16]: 1.634
Complete [2, 17]: 0.9326

Cc1cn([C@H]2C=C[C@@H](CO)O2)c(=O)[nH]c1=O [Stavudine]
Cholesterol-free media + simvastatin (0.04 μM) [1, 9]: 1.022
Complete Media [1, 10]: 0.8293
Difference [1, 5]: −0.19
Difference [2, 13]: −0.09
Cholesterol-free [2, 14]: 0.9921
Complete [2, 12]: 0.8994

CN(C)c1nc(N(C)C)nc(N(C)C)n1 [Altretamine]
Cholesterol-free media + simvastatin (0.04 μM) [1, 9]: 1.135
Complete Media [1, 10]: 0.9636
Difference [1, 5]: −0.17
Difference [2, 18]: −0.04
Cholesterol-free [2, 6]: 0.9853
Complete [2, 7]: 0.9434

COc1cccc2c1C(=O)c1c(O)c3c(c(O)c1C2=O)C[C@@](O)(C(=O)CO)C[C@@H]3O[C@H]1C[C@H](N)[C@@H](O)[C@H](C)O1 [Epirubicin (hydrochloride)]
Cholesterol-free media + simvastatin (0.04 μM) [1, 11]: 0.1295
Complete Media [1, 12]: −0.004785
Difference [1, 5]: −0.13
Difference [2, 18]: −0.01
Cholesterol-free [2, 6]: −0.006463
Complete [2, 7]: −0.01887

N[C@@H]1[C@H]2CN(c3nc4c(cc3F)c(=O)c(C(=O)O)cn4-c3ccc(F)cc3F)C[C@@H]12 [Trovafloxacin]
Cholesterol-free media + simvastatin (0.04 μM) [1, 19]: 1.092
Complete Media [1, 20]: 1.114
Difference [1, 21]: 0.02
Cholesterol-free [2, 22]: 1.186
Complete ([2]; NCI-H292 cells, complete media): 0.8678
Difference ([2]; complete vs cholesterol-free media, greater than 0 enhanced anti-cancer activity, about 0 neutral, below 0 antagonists): −0.32

Indacaterol (maleate)
Cholesterol-free media + simvastatin (0.04 μM) [1, 11]: 1.032
Complete Media [1, 12]: 0.9157
Difference ([1]; complete media vs cholesterol-free media + simvastatin (0.04 μM), […]): −0.12
Difference [2, 23]: −0.20
Cholesterol-free [2, 22]: 1.314
Complete ([2]; NCI-H292 cells, complete media): 1.116

C[C@](N)(Cc1ccc(O)c(O)c1)C(=O)O.O [L-(−)-α-Methyldopa (hydrate)]
Cholesterol-free media + simvastatin (0.04 μM) [1, 3]: 1.97
Complete Media [1, 4]: 1.117
Difference [1, 5]: −0.85
Difference [2, 15]: −0.69
Cholesterol-free [2, 16]: 1.665
Complete [2, 17]: 0.973

O=C(/C=C/c1cccc(S(=O)(=O)Nc2ccccc2)c1)NO [Belinostat]
Cholesterol-free media + simvastatin (0.04 μM) [1, 11]: 0.2409
Complete Media [1, 12]: 0.1471
Difference [1, 5]: −0.09
Cholesterol-free [2, 6]: 0.07179
Complete [2, 7]: 0.1605
Difference [2, 8]: 0.09

CN(C)C(=O)c1ccc(S(=O)(=O)c2ccc(NC(=O)[C@@](C)(O)C(F)(F)F)c(Cl)c2)cc1 [AZD7545]
Cholesterol-free media + simvastatin (0.04 μM) [1, 11]: 0.8136
Complete Media [1, 12]: 1.088
Difference ([1]; complete media minus cholesterol-free media + simvastatin, […]): 0.27
Difference [2, 23]: −0.01
Cholesterol-free [2, 6]: 0.721
Complete [2, 7]: 0.7125

Cc1cc(Nc2ncc(Cl)c(Nc3ccccc3S(=O)(=O)C(C)C)n2)c(OC(C)C)cc1C1CCNCC1 [Ceritinib]
Cholesterol-free media + simvastatin (0.04 μM) [1, 24]: 0.1163
Complete Media [1, 25]: 0.0662
Difference [1, 26]: 0.05
Difference [2, 18]: −0.05
Cholesterol-free [2, 6]: 0.1038
Complete [2, 7]: 0.05759

Nc1cc(N2CCCCC2)nc(N)[n+]1OS(=O)(=O)[O-] [Minoxidil sulfate]
Cholesterol-free media + simvastatin (0.04 μM) [1, 11]: 1.144
Complete Media [1, 12]: 1.047
Difference [1, 5]: −0.10
Difference [2, 18]: −0.27
Cholesterol-free [2, 22]: 1.329
Complete ([2]; NCI-H292 cells, complete media): 1.056

CN1CCC(OC(c2ccccc2)c2ccccc2)CC1 [Diphenylpyraline (hydrochloride)]
Cholesterol-free media + simvastatin (0.04 μM) [1, 11]: 0.641
Complete Media [1, 12]: 1.367
Difference [1, 21]: 0.73
Difference [2, 18]: −0.22
Cholesterol-free [2, 22]: 0.9623
Complete ([2]; NCI-H292 cells, complete media): 0.7446

CN(C)C(=O)Oc1cc(OC(=O)N(C)C)cc(C(O)CNC(C)(C)C)c1 (stereo not drawn) [Bambuterol hydrochloride]
Cholesterol-free media + simvastatin (0.04 μM) [1, 19]: 1.184
Complete Media [1, 20]: 1.226
Difference [1, 21]: 0.04
Cholesterol-free [2, 6]: 1.362
Complete [2, 7]: 1.472
Difference [2, 8]: 0.11

CCN(CC)CCOc1ccc2c(c1)C(=O)c1cc(OCCN(CC)CC)ccc1-2 [Tilorone (dihydrochloride)]
Cholesterol-free media + simvastatin (0.04 μM) [1, 9]: 1.099
Complete Media [1, 10]: 0.8748
Difference [1, 5]: −0.22
Difference [2, 18]: −0.30
Cholesterol-free [2, 22]: 1.404
Complete ([2]; NCI-H292 cells, complete media): 1.104

COc1ccc(CCN(C)CCCC(C#N)(c2ccc(OC)c(OC)c2)C(C)C)cc1OC (stereo not drawn) [Verapamil (hydrochloride)]
Cholesterol-free media + simvastatin (0.04 μM) [1]: 1.071
Complete Media [1]: 1.013
Difference [1]: −0.06
Cholesterol-free [2]: 0.9873
Complete [2]: 0.8558
Difference [2]: −0.13

CC(C)(C)C(=O)OCOC(=O)[C@@H]1N2C(=O)[C@@H](/N=C/N3CCCCCC3)[C@H]2SC1(C)C [Pivmecillinam (hydrochloride)]
Cholesterol-free media + simvastatin (0.04 μM) [1, 9]: 1.219
Complete Media [1, 10]: 1.044
Difference [1, 5]: −0.18
Difference [2, 15]: −0.49
Cholesterol-free [2, 16]: 1.646
Complete [2, 17]: 1.161

C[C@]1(COc2ccc(N3CCC(Oc4ccc(OC(F)(F)F)cc4)CC3)cc2)Cn2cc([N+](=O)[O-])nc2O1 [Delamanid]
Cholesterol-free media + simvastatin (0.04 μM) [1, 24]: 1.352
Complete Media [1, 25]: 1.345
Difference [1, 26]: −0.01
Difference [2, 18]: −0.22
Cholesterol-free [2, 22]: 1.106
Complete ([2]; NCI-H292 cells, complete media): 0.8827

Pergolide (mesylate)
Cholesterol-free media + simvastatin (0.04 μM) [1]: 0.9579
Complete Media [1]: 1.079
Difference [1]: 0.12
Cholesterol-free [2]: 1.027
Complete [2]: 0.8214
Difference [2]: −0.21
